The source of these data is patent US20080300314A1, “Cooling Compounds” (Givaudan SA, priority 2003, published 2008).

Format in all cases: in vivo, human
The subject of assay [1] is panelists. In words: Panel taste test: concentration with cooling intensity similar or slightly higher than menthol at 2 ppm (Table 1). The following applies: solution judged to have cooling intensity similar or slightly higher than menthol at 2 ppm; tasted by small panel.
The test system of assay [2] is panelists. Kind of assay: Panel taste test: longevity of cooling in the mouth (Table 1). The following applies: solutions tasted at the chosen concentration; time until no cooling could be sensed in the mouth. The source says:
In a second experiment, the same panel was asked to taste the solutions at the chosen concentrations and to record the cooling intensity at regular time intervals until no cooling could be sensed in the mouth.

The subject of assay [3] is panelists. Kind of assay: Testing of compounds: panel tasting of aqueous solutions against menthol at 2 ppm (Table 2). The following applies: for Concentration [ppm]: aqueous solution (compound dissolved in ethanol at 1% by weight, then dosed into water), cooling intensity similar to or slightly higher than menthol at 2 ppm; for Description: panel description of the aqueous solution at the concentration listed in Table 2, reference menthol 2 ppm. From the text:
A small group of panelists were asked to taste various aqueous solutions of compounds. The compounds were first dissolved in ethanol at 1% by weight and then dosed into water.

Assay [4] has as its system mouth. Kind of assay: Application in toothpaste. The following applies: toothgel with 2.5 g per 100 g of a 2% solution in PG; teeth brushed, mouth rinsed with water. The source says: [table] The materials are mixed in the toothgel, and a panelist's teeth are brushed using this toothgel. The mouth is rinsed with water and the water spit out. […] The cooling perception lasts for several hours.

`CC1CCC(C(C)C)C(C(=O)Nc2ccc(C#N)cc2)C1` (centres unmarked) [Example 3, N-(4-cyanophenyl) p-menthanecarboxamide] showed a Concentration in assay [1] of 0.5 ppm. This compound also returned a Longevity in assay [2] of 90 min. In the same order, the values of `CC(C)[C@@H]1CC[C@@H](C)C[C@H]1O` [Example 1-Menthol, (1R, 2S, 5R)-2-isopropyl-5-methyl-cyclohexanol, reference compound] are 2.0 ppm and 35 min. Consider `CC(C)[C@@H]1CC[C@@H](C)C[C@H]1C(=O)NCc1ccc(S(N)(=O)=O)cc1` [Example 27, (1R,2S,5R)-2-isopropyl-5-methyl-N-(4-sulfamoylbenzyl)-cyclohexanecarboxamide], for which, in assay [3], the “Concentration [ppm]” value turned out to be 2 ppm. `CC(C)[C@@H]1CC[C@@H](C)C[C@H]1C(=O)NCc1ccc(C#N)cc1` [Example 25, (1R,2S,5R)-N-(4-cyanobenzyl)-2-isopropyl-5-methylcyclohexanecarboxamide]: in assay [3], the “Concentration [ppm]” value was determined as 2 ppm and the Description result is “good icy cooling, slightly astringent”. As to `CC(C)[C@@H]1CC[C@@H](C)C[C@H]1C(=O)Nc1ccc(C(=O)O)cc1` [Example 23, 4-((1R,2S,5R)-2-isopropyl-5-methylcyclohexane-carboxamido)benzoic acid], in assay [3], the “Concentration [ppm]” value stood at 2 ppm and the Description result was “slightly burning then cooling”. As to `CC(C)[C@@H]1CC[C@@H](C)C[C@H]1C(=O)NCc1ccc(C(=O)O)cc1` [Example 28, 4-(((1R,2S,5R)-2-isopropyl-5-methyl-cyclohexanecarboxamido)-methyl)benzoic acid], in assay [3], the “Concentration [ppm]” value stood at 2 ppm and the Description result is recorded as “strong cooling up front, peppery heat”. In assay [1], `CC1CCC(C(C)C)C(C(=O)Nc2ccc(CC#N)cc2)C1` (centres unmarked) [Example 1, N-(4-cyanomethylphenyl) p-menthanecarboxamide] displayed a Concentration of 0.2 ppm. In addition, the Longevity in assay [2] was 93 min. For `CC1CCC(C(C)C)C(C(=O)Nc2ccc(S(N)(=O)=O)cc2)C1` (centres unmarked) [Example 2, N-(4-sulfamoylphenyl) p-menthanecarboxamide], in assay [4], the “Cooling sensation felt in the mouth” value was “intense cooling sensation” and the “Duration of cooling perception” value is given as “several hours”. For `COC(=O)c1ccc(NC(=O)[C@@H]2C[C@H](C)CC[C@H]2C(C)C)cc1` [Example 15, methyl 4-((1R,2S,5R)-2-isopropyl-5-methylcyclohexane-carboxamido)benzoate], in assay [3], the “Concentration [ppm]” value is listed as 2 ppm and the Description result is reported as “slightly cooling, flat cooling”. On to `CCNC(=O)C1CC(C)CCC1C(C)C` (centres unmarked) [N-ethyl p-menthanecarboxamide (WS-3), N-ethyl p-menthanecarboxamide, reference compound], for which the Concentration in assay [1] is recorded as 1.5 ppm. In assay [2], the Longevity was found to be 57 min. Consider `COC(=O)c1ccc(NC(=O)[C@@H]2C[C@H](C)CC[C@H]2C(C)C)cc1OC` [Example 9, methyl 4-((1R,2S,5R)-2-isopropyl-5-methylcyclohexane-carboxamido)-2-methoxybenzoate], for which, in assay [3], the “Concentration [ppm]” value is given as 0.005 ppm. For `CCOC(=O)Cc1ccc(NC(=O)[C@@H]2C[C@H](C)CC[C@H]2C(C)C)cc1` [Example 29, ethyl 2-(4-((1R,2S,5R)-2-isopropyl-5-methylcyclohexane-carboxamido)phenyl)acetate], in assay [3], the “Concentration [ppm]” value came out at 2 ppm and the Description entry is reported as “icy, crisp cool on tongue”. Regarding `CCOC(=O)c1ccc(NC(=O)[C@@H]2C[C@H](C)CC[C@H]2C(C)C)cc1` [Example 16, ethyl 4-((1R,2S,5R)-2-isopropyl-5-methylcyclohexane-carboxamido)benzoate], in assay [3], the “Concentration [ppm]” value worked out at 2 ppm and the Description entry is reported as “Cooling similar to menthol”. For `CC(C)[C@@H]1CC[C@@H](C)C[C@H]1C(=O)Nc1ccc(C=O)cc1` [Example 19, (1R,2S,5R)-N-(4-formylphenyl)-2-isopropyl-5-methylcyclo-hexanecarboxamide], in assay [3], the “Concentration [ppm]” value came out at 2 ppm; the Description entry was “cooling builds and lingers”. For `CC(C)[C@@H]1CC[C@@H](C)C[C@H]1C(=O)Nc1ccccc1C#N` [Example 32], in assay [3], the “Concentration [ppm]” value was determined as 2 ppm and the Description result is on record as “mouthcoating, more cooling than menthol”.

For the compound `CC(C)Oc1ccc(CNC(=O)[C@@H]2C[C@H](C)CC[C@H]2C(C)C)cc1` [Example 7, (1R,2S,5R)-N-(4-isopropoxybenzyl)-2-isopropyl-5-methylcyclohexanecarboxamide], in assay [3], the “Concentration [ppm]” value turned out to be 0.01 ppm. For the compound `CC(C)[C@@H]1CC[C@@H](C)C[C@H]1C(=O)NCc1ccc(C(=O)O)cc1` [Example 24, 4-(((1R,2S,5R)-2-isopropyl-5-methylcyclohexane-carboxamido)methyl)benzoic acid], in assay [3], the “Concentration [ppm]” value is on record as 2 ppm and the Description result is “little cooling, slightly refreshing”.

As for `CC(C)[C@@H]1CC[C@@H](C)C[C@H]1C(=O)Nc1ccccc1C#N` [Example 30, (1R,2S,5R)-N-(2-cyanophenyl)-2-isopropyl-5-methylcyclohexane-carboxamide], in assay [3], the “Concentration [ppm]” value is listed as 2 ppm and the Description result was “clean, slightly stronger than menthol”.

As to `CC(C)[C@@H]1CC[C@@H](C)CC1C(=O)Nc1cccc(C#N)c1` (stereo partly drawn) [Example 31, (2S,5R)-N-(3-cyanophenyl)-2-isopropyl-5-methylcyclohexane-carboxamide], in assay [3], the “Concentration [ppm]” value is reported as 1 ppm and the Description entry is listed as “weak cooling, tingling, numbing on tongue,”.
